We go through four compounds from the NIST ThermoML archive (doi:10.1016/j.fluid.2005.05.018).

For orientation: mass density means mass per unit of volume. By refractive index is commonly meant the speed of light in vacuum divided by its phase velocity in the sample.

Numbers after ± are expanded uncertainties.

The conditions of data set [1]: 101.33 kPa, Liquid.
Data set [2] in a line: refractive index (Na D-line) (dimensionless). To be noted: 293.15 K; 101.33 kPa; Liquid; Standard Abbe refractometry.

For the compound `CC(=O)OC(C)C` [1-methylethyl ethanoate], the mass density in data set [1] (298.15 K) turned out to be 866.4 ± 0.5 kg/m3. Besides, in data set [2], the refractive index is recorded as 1.3751 ± 0.0007.
The matching figures for `CCOC(=O)OCC` [diethyl carbonate]: 969.2 ± 0.3 kg/m3 and 1.383 ± 0.0007.
As to `CCO` [ethanol], the mass density in data set [1] (293.15 K) is given as 789.4 ± 0.6 kg/m3. Besides, in data set [2], the refractive index is on record as 1.3592 ± 0.0007.
The matching figures for `CCCC(=O)OCC` [ethyl butanoate]: 879 ± 0.5 kg/m3 and 1.3899 ± 0.0007.
